Laboratory results published in patent US20150105252A1, “SUBSTITUTED PYRAZOLES AS HERBICIDES” (E I DU PONT DE NEMOURS AND COMPANY, priority 2013, published 2015).

Assays:
barnyardgrass [1] = test: Test A postemergence; assay type: in vivo, Echinochloa crus-galli
Summary of the method: (§1)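 Visual injury ratings, 0 = no effect to 100 = complete control, taken about 10 days after treatment against untreated controls. Test chemicals, in a non-phytotoxic surfactant-containing solvent, were sprayed onto soil preemergence or onto one- to two-leaf plants (2–10 cm) postemergence, in loam–sand soil under greenhouse conditions.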

barnyardgrass [2] = test: Test A preemergence; assay type: in vivo, Echinochloa crus-galli; settings: preemergence; for Barnyardgrass plant response rating (0 to 100 scale, 0 is no effect, 100 is complete control): visual injury approx. 10 days after treatment
Summary of the method: as §1

rice = test: Test B flood; assay type: in vivo, Oryza sativa; settings: 250 g ai/ha, visual rating on 0 to 100 scale (0 no effect, 100 complete control), 13 to 15 days
Summary of the method: (§2)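 Greenhouse assay lasting 13 to 15 days. Treatment was into water flooding pots 3 cm deep, at the 2-leaf stage, with that level sustained afterwards. Scores compare treated with control plants visually, 100 denoting complete control and 0 no effect; a dash marks no test result.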

ragweed = test: Test C preemergence; assay type: in vivo, Ambrosia elation
Description: (§3) Seeds of plant species selected from blackgrass (Alopecurus myosuroides), ryegrass, Italian (Italian ryegrass, Lolium multiflorum), wheat (winter wheat, Triticum aestivum), galium (catchweed bedstraw, Galium aparine), corn (Zea mays), crabgrass, large (large crabgrass, Digitaria sanguinalis), foxtail, giant (giant foxtail, Setaria faberii), johnsongrass (Sorghum halepense), lambsquarters (Chenopodium album), morningglory (Ipomoea coccinea), nutsedge, yellow (yellow nutsedge, Cyperus esculentus), pigweed (redroot pigweed, Amaranthus retroflexus), ragweed (common ragweed, Ambrosia elation), soybean (Glycine max), barnyardgrass (Echinochloa crus-galli), oilseed rape (Brassica napus), waterhemp (common waterhemp, Amaranthus rudis), oat, wild (wild oat, Avena fatua), kochia (Kochia scoparia), Surinam grass (Brachiaria decumbens), foxtail, green (green foxtail, Setaria viridis), goosegrass (Eleusine indica), bromegrass, downy (downy bromegrass, Bromus tectorum), nightshade (eastern black nightshade, Solanum ptycanthum), cocklebur (common cocklebur, Xanthium strumarium), cupgrass, woolly (woolly cupgrass, Eriochloa villosa), bermudagrass (Cynodon dactylon), sunflower, (common oilseed sunflower, Helianthus annuus), Russian thistle (Salsola kali), and velvetleaf (Abutilon theophrasti) were planted into a blend of loam soil and sand and treated preemergence with test chemicals formulated in a non-phytotoxic solvent mixture which included a surfactant.
(§4) At the same time, plants selected from these crop and weed species and also chickweed (common chickweed, Stellaria media), canarygrass (littleseed canarygrass, Phalaris minor), and deadnettle (henbit deadnettle, Lamium amplexicaule), were planted in pots containing Redi-Earth® planting medium (Scotts Company, 14111 Scottslawn Road, Marysville, Ohio 43041) comprising spaghnum peat moss, vermiculite, wetting agent and starter nutrients and treated with postemergence applications of test chemicals formulated in the same manner. Plants ranged in height from 2 to 18 cm (1- to 4-leaf stage) for postemergence treatments. Treated plants and controls were maintained in a greenhouse for 13 to 15 days, after which time all species were compared to controls and visually evaluated. Plant response ratings, summarized in Table C, are based on a scale of 0 to 100 where 0 is no effect and 100 is complete control. A dash (-) response means no test result.

ducksalad = test: Test B flood; assay type: in vivo, Heteranthera limosa; settings: 250 g ai/ha, visual rating on 0 to 100 scale (0 no effect, 100 complete control), 13 to 15 days
Summary of the method: as §2

pigweed = test: Test A postemergence; assay type: in vivo, Amaranthus retroflexus
Summary of the method: as §1

corn = test: Test A postemergence; assay type: in vivo, Zea mays
Summary of the method: as §1

blackgrass = test: Test C preemergence; assay type: in vivo, Alopecurus myosuroides; settings: for Blackgrass plant response rating / Plant response rating, Blackgrass: preemergence; for Plant response rating, Blackgrass: scale 0 to 100, 0 = no effect, 100 = complete control
Description: as §3, §4

foxtail, giant = test: Test C preemergence; assay type: in vivo, Setaria faberii
Description: as §3, §4

[3] = Postemergence, 500 g ai/ha, 0 to 100 scale (0 no effect, 100 complete control)
[4] = postemergence, 125 g ai/ha, about 10 days, visual rating on 0 to 100 scale (0 no effect, 100 complete control)
[5] = 125 g ai/ha, visual injury, 0 to 100 scale, approx. 10 days
[6] = 500 g ai/ha, visual injury after approx. 10 days, 0 to 100 scale (0 no effect, 100 complete control)
[7] = preemergence, 31 g ai/ha, visual rating, scale 0 to 100 (0 no effect, 100 complete control), 13 to 15 days
[8] = preemergence, 62 g ai/ha, scale 0 to 100 (0 no effect, 100 complete control), 13 to 15 days
[9] = preemergence, 125 g ai/ha, scale 0 to 100, 0 is no effect, 100 is complete control
[10] = 31 g ai/ha, visual rating, scale 0 to 100 (0 no effect, 100 complete control), 13 to 15 days
[11] = 62 g ai/ha, scale 0 to 100 (0 no effect, 100 complete control), 13 to 15 days
[12] = preemergence, 125 g ai/ha, 13 to 15 days, scale 0 to 100, 0 = no effect, 100 = complete control
[13] = preemergence, 250 g ai/ha, scale 0 to 100, 0 is no effect, 100 is complete control
[14] = 250 g ai/ha, scale 0 to 100, 0 is no effect, 100 is complete control
[15] = Postemergence, 125 g ai/ha, 0 to 100 scale, 0 no effect, 100 complete control
[16] = Preemergence, rate head not shown (block before 16 g ai/ha), scale 0 to 100

Row | Structure (SMILES) | Barnyardgrass plant response rating (barnyardgrass [1]; [3]) | Barnyardgrass plant response rating (barnyardgrass [1]; [4]) | Barnyardgrass plant response rating (barnyardgrass [2]; [6]) | Plant response rating, Rice (rice) | Ragweed plant response rating (ragweed; [7]) | Ragweed plant response rating (ragweed; [8]) | Plant response rating, Ducksalad (ducksalad) | Pigweed plant response rating (pigweed; [3]) | Corn plant response rating (corn; [3]) | Corn plant response rating (corn; [4]) | Blackgrass plant response rating (blackgrass; [10]) | Blackgrass plant response rating (blackgrass; [11]) | Foxtail, Giant plant response rating (foxtail, giant; [7]) | Foxtail, Giant plant response rating (foxtail, giant; [8]) | Plant response rating, Ragweed (ragweed; [12]) | Ragweed plant response rating (ragweed; [13]) | Plant response rating, Blackgrass (blackgrass; 125 g ai/ha, 13 to 15 days) | Blackgrass plant response rating (blackgrass; [14]) | Plant response rating, Foxtail, Giant (foxtail, giant; [12]) | Foxtail, Giant plant response rating (foxtail, giant; [13]) | further results
1 | CCONC(=O)c1cc(CC)n(Cc2cc(C(F)(F)F)no2)n1 [Compound 125] | 90 | 30 | 100 | 10 | 5 | 10 | 60 | 100 | 90 | 30 | 0 | 10 | 20 | 35 | – | – | – | – | – | – | Barnyardgrass plant response rating (barnyardgrass [2]; [5]): 80; Plant response rating (scale of 0 to 100), Ragweed (ragweed; Preemergence, 250 g ai/ha): 75; Ragweed plant response rating (ragweed; [9]): 55; Pigweed plant response rating (pigweed; [4]): 70; Plant response rating (scale of 0 to 100), Blackgrass (blackgrass; Preemergence, 250 g ai/ha): 80; Blackgrass plant response rating (blackgrass; 125 g ai/ha, scale 0 to 100, 0 is no effect, 100 is complete control): 60; Plant response rating (scale of 0 to 100), Foxtail, Giant (foxtail, giant; Preemergence, 250 g ai/ha): 90; Foxtail, Giant plant response rating (foxtail, giant; [9]): 90
2 | O=C(NCC(F)(F)F)c1cc(CCCl)n(Cc2ccnc(C(F)(F)F)c2)n1 [Compound 143] | 90 | 60 | 100 | 25 | 98 | 98 | 100 | 100 | 90 | 60 | 85 | 85 | 100 | 100 | 95 | 100 | 90 | 90 | 100 | 100 | Barnyardgrass plant response rating (barnyardgrass [2]; [5]): 90; Pigweed plant response rating (pigweed; [4]): 100
3 | CCCNC(=O)c1cc(CCCl)n(Cc2ccnc(C(F)(F)F)c2)n1 [Compound 145] | 90 | 60 | 100 | 25 | 75 | 95 | 100 | 100 | 90 | 60 | 70 | 85 | 100 | – | 95 | 98 | 90 | 90 | 100 | 100 | Barnyardgrass plant response rating (barnyardgrass [2]; [5]): 90; Pigweed plant response rating (pigweed; [4]): 100
4 | CCNC(=O)c1cc(CCCl)n(Cc2ccnc(C(F)(F)F)c2)n1 [Compound 179] | 90 | 70 | 100 | 0 | 90 | 98 | 100 | 100 | 90 | 50 | 5 | 40 | 98 | 100 | 98 | 98 | 90 | 95 | 100 | 100 | Barnyardgrass plant response rating (0 to 100 scale, 0 is no effect, 100 is complete control) (barnyardgrass [2]; 125 g ai/ha): 100; Pigweed plant response rating (pigweed; [4]): 100
5 | CCONC(=O)c1cc(OCC)n(Cc2ccnc(C(F)(F)F)c2)n1 [Compound 195] | 90 | 70 | 100 | 10 | – | 85 | 95 | 100 | 90 | 80 | 5 | 90 | 65 | 85 | 90 | 98 | 90 | 90 | 100 | 100 | Barnyardgrass plant response rating (0 to 100 scale, 0 is no effect, 100 is complete control) (barnyardgrass [2]; 125 g ai/ha): 90; Pigweed plant response rating (pigweed; [15]): 100
6 | CCc1cc(C(=O)NC2CC2)nn1Cc1cc(C(F)(F)C(F)(F)F)nn1C [Compound 226] | 90 | – | 100 | 30 | – | 100 | 90 | 100 | 80 | – | 60 | 85 | – | 90 | 95 | 98 | 70 | 90 | 100 | 100 | Barnyardgrass plant response rating (barnyardgrass [1]; [15]): 60; Barnyardgrass plant response rating (0 to 100 scale, 0 is no effect, 100 is complete control) (barnyardgrass [2]; 125 g ai/ha): 80; Plant response rating, Ragweed (ragweed; [16]): 90; Pigweed plant response rating (pigweed; [15]): 100; Corn plant response rating (corn; [15]): 50; Plant response rating, Foxtail, Giant (foxtail, giant; [16]): 80
